The values below come from patent publication US8465780B2, “Borate micro emulsion and method for making the same” (Nisus Corporation, priority 2006, dated 2013).

The test system of one data set is algae. In words: Algae growth suppression in lake water (Example 4). The class given is cell-based. The note with it: 0.1 weight percent in lake water, two months outside in sun; higher = more algal growth.
A short description of data set [1]: Borate dissolution test in 300 mm water column. It is filed as physicochemical. The note with it: 0.2 g (0.08 weight %) in 250 ml deionized water, 300 mm column. The method, then:
In this example, different forms of borates were added to columns of water and a swimming pool to determine their comparative dispersion and rate of dissolution characteristics.
Two hundred and fifty (250) ml of deionized water was placed in each of 4 measuring cylinders to give a 300 mm vertical column of water in each cylinder to mimic in small scale the depth of water in a swimming pool. […] The results of the addition were then observed visually and recorded.

A short description of data set [2]: Free chlorine and pH in 2000 gallon swimming pools (Example 6).
Description: In this example, different borates were added to swimming pools, together with a chlorine-based sanitizer, in order to measure pH and free chlorine (CY) levels in the swimming pools over a period it time.
Three substantially identical, 2000 gallon above-ground swimming pools were used for the tests. Each pool was initially filled with approximately 2000 gallons of tap water, and then 500 milliliters of lake water was added to each pool to inoculate the pool water with algae. The testing was conducted during the month of September at a location near Knoxville, Tenn.
In the first pool, approximately 4 pounds of sodium tetraborate was added to the pool water. […] The third pool was used as a control with no form of borate being added to the pool water. The borates in the first and second pools were then allowed to mix overnight.
The following morning, initial pH and chlorine measures were taken for each pool at approximately 9:45 am. Approximately 0.3 pounds of calcium hypochlorate was then added to the water in each of the three swimming pools at approximately 10 am. The pH and chlorine levels in each of the pools were then measured periodically over the course of the day.

Description for algae: From this lake sample, three 1 liter glass beakers were each filled with 900 mL of lake water. […] Sodium tetraborate was added to a second beaker to provide a concentration of 0.1 weight percent sodium tetraborate. The third beaker was left as an untreated control. The three samples, which were collected in August, were then left outside, fully exposed to the sun, for a period of two months.
After the two month period, the samples were then visually inspected for algal growth. The samples were also analyzed using a Spectronic Genesys 20 spectrophotometer from Thermo Scientific. This analysis was conducted by testing for absorbance at 330 nm.

As for `O=BOB(O)OB(O)OB=O` [Sodium tetraborate, sodium tetraborate], the “Absorbance (Abs.) at 330 nm” value with algae was 0.01 Abs.

Turning to `OB(O)O` [boric acid, reference compound], in data set [1], the “dispersion and dissolution, observed visually” value was “mostly float on top of the water and did not completely dissolve”.

As to `O.O.O.O.O=BOB1OB(OB=O)OB2OB([O-])OB([O-])OB(O1)O2.[Na+].[Na+]` [disodium octaborate tetrahydrate], the “dispersion and dissolution, observed visually” value in data set [1] was “immediately disperse and fully dissolve in a matter of seconds”.

Take sodium hexaborate: the “pH for swimming pool water” value in data set [2] (1:25 pm), in data set [2] (2:10 pm), in data set [2] (2:50 pm), in data set [2] (3:30 pm), in data set [2] (4:10 pm) and in data set [2] (5:00 pm) was 7.2-7.8 each time. Also, the “pH for swimming pool water” value is 7.2-7.8 in data set [2] (9:45 am, before calcium hypochlorate addition, 4 pounds borate per 2000 gallons); 7.2-7.8 in data set [2] (10:00 am, time of calcium hypochlorate addition); 7.2-7.8 in data set [2] (10:55 am); 7.8-8.4 in data set [2] (11:15 am); 7.8-8.4 in data set [2] (12:00 pm); 7.8-8.4 in data set [2] (12:40 pm).
